± gives the expanded uncertainty stated by the source.

Consider three compounds from the NIST ThermoML archive (doi:10.1021/acs.jced.5b00436).

The data set is described as follows: refractive index (Na D-line) (dimensionless). The conditions noted are these: 293.15 K; 101.33 kPa; Liquid; Standard Abbe refractometry.
In the case of `OCC(F)(F)C(F)(F)C(F)(F)C(F)F` [2,2,3,3,4,4,5,5-octafluoro-1-pentanol], the refractive index (in general, the speed of light in vacuum divided by its phase velocity in the sample) worked out at 1.3171 ± 0.0005.
Take `CCO` [ethanol]: the refractive index came out at 1.3616 ± 0.0005.
Then `O` [water], with 1.3328 ± 0.0005.
